From patent publication US20090068290A1, “BIFEPRUNOX DOSES FOR TREATING SCHIZOPHRENIA” (priority 2006, published 2009)

Tests used:
[1] = Body weight, Clinical Study Three
Text: To assess the safety and tolerability of bifeprunox using physical examination, weight, waist circumference, vital signs (pulse rate and systolic/diastolic blood pressure [BP], and oral temperature), 12-lead electrocardiogram (ECG), clinical laboratory assessments (hematology, biochemistry including fasting insulin level, fasting glucose, fasting lipid profile, urinalysis, special laboratory assessments for prolactin, IGF-1, IGFBP-3, and thyroid function), need for anticholinergic treatment during double-blind treatment period, concomitant medication use, adverse event (AE) monitoring, and assessments of abnormal movement including the Simpson-Angus Scale (SAS), Barnes Akathisia Scale (BAS), and Abnormal Involuntary Movement Scale (AIMS).

[2] = system: adult subjects with schizophrenia; assay: Calgary Depression Scale for Schizophrenia (CDSS), Clinical Study Three; format: in vivo, human; conditions: LOCF; for Change from Baseline in CDSS Total Score, Median / Change from Baseline in CDSS Total Score, Mean (SD): 15 mg
Text: SECONDARY OBJECTIVES To assess the efficacy of bifeprunox in treating schizophrenia using the Positive Symptom sub-scale score of the PANSS, the Negative Symptom sub-scale score of the PANSS, the General Psychopathology sub-scale of the PANSS, Brief Psychiatric Rating Scale (BPRS) total score derived from the PANSS, BPRS psychosis score derived from the PANSS, the Clinical Global Impression Severity of Illness score (CGI-S), the Clinical Global Impression Improvement score (CGI-I), CGI-I responder rate, PANSS responder rate based on the PANSS total score, Calgary Depression Scale for Schizophrenia (CDSS), and Subject Satisfaction rating.
There were four treatment arms in this study, approximately 144 subjects per arm. […] After completing the Single-Blind Placebo Lead-in Period of at least three days, bifeprunox-treated subjects were titrated from 0.25 mg up to 20 mg/day or 30 mg/day according to a standardized titration scheme over a seven- or eight-day period, respectively. When the assigned dose was reached, subjects were maintained at that dose for the remainder of the six week treatment period. […] Subjects were hospitalized (if not already inpatients) after eligibility for study entry was verified, starting from the Screening Visit until at least 10 days after Baseline. Subjects could be hospitalized longer than 10 days if considered medically necessary by the Investigator. Rating scale assessments for efficacy and abnormal movement disorders were done weekly except for Week 5. […] Subject satisfaction with study medication was assessed at Week 6.

Structure (SMILES): Cc1cc2c(s1)Nc1ccccc1N=C2N1CCN(C)CC1 [Olanzapine, olanzapine, reference compound]
- Weight, Baseline, Max ([1]; Olanzapine 15 mg): 300 lbs
- Weight, Baseline, Mean (SD) ([1]; Olanzapine 15 mg): 175.2 (52.7) lbs
- Weight, Baseline, Min ([1]; Olanzapine 15 mg): 68 lbs
- Weight, Change from Baseline at Endpoint, Max ([1]; Olanzapine 15 mg): 31 lbs
- Weight, Change from Baseline at Endpoint, Mean (SD) ([1]; Olanzapine 15 mg): 5.2 (6.9) lbs
- Weight, Change from Baseline at Endpoint, Median ([1]; Olanzapine 15 mg): 4 lbs
- Weight, Change from Baseline at Endpoint, Min ([1]; Olanzapine 15 mg): −7 lbs
- Weight, Change from Baseline at Week 6, Max ([1]; Olanzapine 15 mg): 31 lbs
- Weight, Change from Baseline at Week 6, Mean (SD) ([1]; Olanzapine 15 mg): 5.9 (7.3) lbs
- Weight, Change from Baseline at Week 6, Median ([1]; Olanzapine 15 mg): 5 lbs
- Weight, Change from Baseline at Week 6, Min ([1]; Olanzapine 15 mg): −7 lbs
- mean body weight (in words) ([1]; olanzapine 15 mg, 6 weeks): an increase in weight
- Change from Baseline in CDSS Total Score, Median ([2]; Week 1): −1.0
- Change from Baseline in CDSS Total Score, Mean (SD) ([2]; Week 2): −1.33 (3.33)
- Change from Baseline in CDSS Total Score, Median ([2]; Week 2): −1.0
- Change from Baseline in CDSS Total Score, Mean (SD) ([2]; Week 3): −1.59 (3.43)
- Change from Baseline in CDSS Total Score, Median ([2]; Week 3): −1.0
- Change from Baseline in CDSS Total Score, Mean (SD) ([2]; Week 4): −1.49 (3.89)
- Change from Baseline in CDSS Total Score, Median ([2]; Week 4): −1.0
- Change from Baseline in CDSS Total Score, Mean (SD) ([2]; Week 6, Endpoint): −1.47 (3.95)
- Change from Baseline in CDSS Total Score, Median ([2]; Week 6, Endpoint): −1.0
- mean change (SD) from Baseline to Endpoint in CDSS score ([2]; olanzapine 15 mg, ITT): −1.47 (3.95)
